pEC50: −log10 of the molar value.
Molecular target: Toll-like receptor 7 (Homo sapiens (Human), UniProt Q9NYK1)
Assay: Toll-like receptor 7 in vitro receptor binding activity screen (HEK-blue hTLR7 cell, Quanti-Blue alkaline phosphatase readout)
Type: cell-based
Conditions: 24 h incubation, read-out: TLR7 EC50
Protocol: Toll-Like Receptor 7 and Toll-Like Receptor 8 In Vitro Receptor Binding Activity Screen
HEK-blue hTLR7 cell and HEK-blue hTLR8 cell (available from InvivoGen)
heat inactivated fetal bovine serum
Anti Mycoplasma reagent Normocin™
The structures of GS-9620 and R848 used are as follows, wherein the preparation of GS-9620 could be referred to the process disclosed in US20100143301; R848 was commercially available from ABGENT (IMG-2208, specification: 0.5 mg).
1. Preparation of 96-well compound plate:
The compounds were gradient diluted with DMSO in 3-fold using liquid work station POD starting at a concentration of 10 mmol/L and 10 points were diluted (2nd column to 11th column, and each point was duplicated). At 12th column, 1 μL of 5 mg/mL positive compound R848 was added as positive control; and at 1st column, 1 μL of DMSO was added as negative control. Each well contained 1 μL of DMSO.
2. The cells in culture flask were collected and the cell density was diluted to 250,000 cells/mL.
3. 200 μL (50,000 cells/well) of cell suspension was added into prepared compound plate and the final concentration of DMSO in each well was 0.5%.
4. The culture plates containing cells and the compounds were incubated in CO2 incubator for 24 h at 37° C., 5% CO2.
5. After 24 h incubation, 20 μL of supernatant was removed from each well to a 96-well transparent assay plate. To each well of the assay plate was added 180 μL of Quanti-Blue reagent and the plate was incubated in an incubator at 37° C., 5% CO2 for 1 h.
6. After 1 h, the content of alkaline phosphatase in 20 μL of supernatant was determined using Microplate Reader OD650.
7. EC50 of each compound was obtained with Prism software.

Sequence of Toll-like receptor 7 (Q9NYK1 27-1049): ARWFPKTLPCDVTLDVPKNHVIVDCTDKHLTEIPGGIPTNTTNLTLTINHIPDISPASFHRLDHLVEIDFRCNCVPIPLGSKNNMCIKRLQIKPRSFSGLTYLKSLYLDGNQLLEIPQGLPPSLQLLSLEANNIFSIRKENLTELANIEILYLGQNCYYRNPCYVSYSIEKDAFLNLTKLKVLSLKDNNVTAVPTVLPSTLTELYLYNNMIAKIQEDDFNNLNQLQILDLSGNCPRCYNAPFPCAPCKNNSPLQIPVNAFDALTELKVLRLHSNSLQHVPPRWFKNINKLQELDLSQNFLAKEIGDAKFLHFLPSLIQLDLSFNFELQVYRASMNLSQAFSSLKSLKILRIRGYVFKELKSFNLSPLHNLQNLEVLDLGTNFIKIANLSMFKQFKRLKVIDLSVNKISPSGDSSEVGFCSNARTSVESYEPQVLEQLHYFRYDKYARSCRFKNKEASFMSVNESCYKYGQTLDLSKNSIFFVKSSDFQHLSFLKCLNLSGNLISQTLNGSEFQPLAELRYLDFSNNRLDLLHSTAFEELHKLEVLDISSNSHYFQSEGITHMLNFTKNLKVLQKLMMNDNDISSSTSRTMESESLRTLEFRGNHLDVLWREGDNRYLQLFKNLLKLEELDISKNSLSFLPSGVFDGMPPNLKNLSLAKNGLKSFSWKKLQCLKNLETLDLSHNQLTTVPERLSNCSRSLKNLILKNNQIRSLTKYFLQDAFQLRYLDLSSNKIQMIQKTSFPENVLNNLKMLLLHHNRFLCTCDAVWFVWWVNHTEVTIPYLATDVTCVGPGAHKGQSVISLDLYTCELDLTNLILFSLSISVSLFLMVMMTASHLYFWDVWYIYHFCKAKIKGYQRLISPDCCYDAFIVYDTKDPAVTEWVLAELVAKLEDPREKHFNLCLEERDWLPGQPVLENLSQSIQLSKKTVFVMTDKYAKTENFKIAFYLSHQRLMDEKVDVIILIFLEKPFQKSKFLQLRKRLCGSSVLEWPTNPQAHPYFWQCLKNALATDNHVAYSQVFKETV

SMILES	pEC50
CCCCOc1nc(N)c2[nH]cc(Cc3ccc(CN4CCC(O)C4)cc3)c2n1 (stereo not shown) [Compound 4]	6.00 to 7.00
CCCCOc1nc(N)c2[nH]cc(Cc3ccc(CN4CCN(C(C)C)CC4)cc3)c2n1 [Compound 16]	6.00 to 7.00
CCCCOc1nc(N)c2[nH]cc(Cc3ccc(CN4CCC(F)(F)C4)cc3)c2n1 [Compound 2]	4.30 to 6.00
CCCCOc1nc(N)c2[nH]cc(Cc3ccc(CN(CC)CC)cc3)c2n1 [Compound 9]	6.00 to 7.00
CCCCOc1nc(N)c2[nH]cc(Cc3ccc(CN4CCOCC4)cc3)c2n1 [Compound 6]	4.30 to 6.00
CCCCOc1nc(N)c2[nH]cc(Cc3ccc(CN4CCCC4)cc3)c2n1 [Compound 1, 2-butoxy-7-(4-(pyrrolidin-1-ylmethyl)benzyl)-5H-pyrrolo[3,2-d]pyrimidin-4-amine]	6.00 to 7.00
CCCCOc1nc(N)c2[nH]cc(Cc3ccc(CN(C)C)cc3)c2n1 [Compound 8]	6.00 to 7.00
CCCCOc1nc(N)c2[nH]cc(Cc3ccc(CN4CC(C)OC(C)C4)cc3)c2n1 (stereo not shown) [Compound 14]	6.00 to 7.00
CCCCOc1nc(N)c2[nH]cc(Cc3ccc(CN4CCC(OC)CC4)cc3)c2n1 [Compound 15]	6.00 to 7.00
CCCCOc1nc(N)c2[nH]cc(Cc3ccc(CN4CCC4)cc3)c2n1 [Compound 11]	6.00 to 7.00
CCCCOc1nc(N)c2[nH]cc(Cc3ccc(CN(CCC)CCC)cc3)c2n1 [Compound 10]	6.00 to 7.00
CCCCOc1nc(N)c2[nH]cc(Cc3ccc(CN4CCN(C)CC4)cc3)c2n1 [Compound 7]	4.30 to 6.00
CCCCOc1nc(N)c2[nH]cc(Cc3ccc(CN4CC(OC)C4)cc3)c2n1 [Compound 12]	6.00 to 7.00
CCCCOc1nc(N)c2[nH]cc(Cc3ccc(CN4CCC(F)C4)cc3)c2n1 (stereo not shown) [Compound 3]	6.00 to 7.00
CCCCOc1nc(N)c2[nH]cc(Cc3ccc(CN4CCCCC4)cc3)c2n1 [Compound 5]	6.00 to 7.00
CCCCOc1nc(N)c2[nH]cc(Cc3ccc(CN4CCCN(C)CC4)cc3)c2n1 [Compound 13]	6.00 to 7.00
